According to patent US20080063668A1, “Nitroimidazole and terconazole composition and method” (priority 2006, published 2008):

How the values were obtained:
Experiment in all cases: Inhibition of bacteria growth, drug dilution tubes, anaerobic
Assay type in all cases: cell-based
Design in all cases: key to growth: (+) for growth; (−) for no growth; (±) for suboptimal growth after an initial observation of growth
Atopobium vaginae BAA-55 = test system: Atopobium vaginae BAA-55
Experimental: (§1) Serial dilutions of tinidazole and terconazole were prepared by adding measured amounts of each substance to water (both individually and in combination). Seven bacterial organisms that are common pathogens in bacterial vaginosis were grown anaerobically in the medium as listed in Table 4 under a N2/H2/CO2 (85:5:10) head space atmosphere. [table] These cultures were diluted to a 0.5 McFarland standard prior to inoculation of drug dilution tubes. One (1) mL of the 0.5 McFarland preparation was inoculated to an anaerobically prepared test tube containing 0.8 mL of Difco anaerobic medium (DAMM) and 0.2 mL of appropriate diluted antimicrobial or antimicrobial combination for a total of 2 mL. The inoculated tubes were then incubated at 37° C. and monitored daily for growth. Growth was scored with a (+) for growth, (−) for no growth, and (±) for suboptimal growth after an initial observation of growth. Tinidazole is abbreviated as TNZ and terconazole is abbreviated as TER in Tables 5 through 11.

[1] = test system: Mobiluncus mulieris ATCC 35243
Experimental: as §1

[2] = test system: Gardnerella vaginalis ATCC 14019
Experimental: as §1

Structure (SMILES): CCS(=O)(=O)CCn1c([N+](=O)[O-])cnc1C [TNZ, 1-[2-(ethylsulfonyl)ethyl]-2-methyl-5-nitroimidazole]
- growth (Atopobium vaginae BAA-55; TNZ 2 μg/ml, DAY 1): (+)
- growth (Atopobium vaginae BAA-55; TNZ 2 μg/ml, DAY 2): (+)
- growth (Atopobium vaginae BAA-55; TNZ 2 μg/ml, DAY 3): (+)
- growth (Atopobium vaginae BAA-55; TNZ 2 μg/ml, DAY 4): (+)
- growth (Atopobium vaginae BAA-55; TNZ 2 μg/ml, DAY 5): (+)
- growth (Atopobium vaginae BAA-55; TNZ 3.9 μg/ml, DAY 1): (+)
- growth (Atopobium vaginae BAA-55; TNZ 3.9 μg/ml, DAY 2): (+)
- growth (Atopobium vaginae BAA-55; TNZ 3.9 μg/ml, DAY 3): (+)
- growth (Atopobium vaginae BAA-55; TNZ 3.9 μg/ml, DAY 4): (+)
- growth (Atopobium vaginae BAA-55; TNZ 3.9 μg/ml, DAY 5): (+)
- growth (Atopobium vaginae BAA-55; TNZ 7.8 μg/ml, DAY 1): (+)
- growth (Atopobium vaginae BAA-55; TNZ 7.8 μg/ml, DAY 2): (+)
- growth (Atopobium vaginae BAA-55; TNZ 7.8 μg/ml, DAY 3): (+)
- growth (Atopobium vaginae BAA-55; TNZ 7.8 μg/ml, DAY 4): (+)
- growth (Atopobium vaginae BAA-55; TNZ 7.8 μg/ml, DAY 5): (+)
- growth (Atopobium vaginae BAA-55; TNZ 15.6 μg/ml, DAY 1): (−)
- growth (Atopobium vaginae BAA-55; TNZ 15.6 μg/ml, DAY 2): (+)
- growth (Atopobium vaginae BAA-55; TNZ 15.6 μg/ml, DAY 3): (+)
- growth (Atopobium vaginae BAA-55; TNZ 15.6 μg/ml, DAY 4): (+)
- growth (Atopobium vaginae BAA-55; TNZ 15.6 μg/ml, DAY 5): (+)
- growth (Atopobium vaginae BAA-55; TNZ 31.3 μg/ml, DAY 1): (−)
- growth (Atopobium vaginae BAA-55; TNZ 31.3 μg/ml, DAY 2): (+)
- growth (Atopobium vaginae BAA-55; TNZ 31.3 μg/ml, DAY 3): (+)
- growth (Atopobium vaginae BAA-55; TNZ 31.3 μg/ml, DAY 4): (+)
- growth (Atopobium vaginae BAA-55; TNZ 31.3 μg/ml, DAY 5): (+)
- growth (Atopobium vaginae BAA-55; TNZ 62.5 μg/ml, DAY 1): (−)
- growth (Atopobium vaginae BAA-55; TNZ 62.5 μg/ml, DAY 2): (+)
- growth (Atopobium vaginae BAA-55; TNZ 62.5 μg/ml, DAY 3): (+)
- growth (Atopobium vaginae BAA-55; TNZ 62.5 μg/ml, DAY 4): (+)
- growth (Atopobium vaginae BAA-55; TNZ 62.5 μg/ml, DAY 5): (+)
- growth (Atopobium vaginae BAA-55; TNZ 125 μg/ml, DAY 1): (−)
- growth (Atopobium vaginae BAA-55; TNZ 125 μg/ml, DAY 2): (+)
- growth (Atopobium vaginae BAA-55; TNZ 125 μg/ml, DAY 3): (+)
- growth (Atopobium vaginae BAA-55; TNZ 125 μg/ml, DAY 4): (+)
- growth (Atopobium vaginae BAA-55; TNZ 125 μg/ml, DAY 5): (+)
- growth (Atopobium vaginae BAA-55; TNZ 250 μg/ml, DAY 1): (−)
- growth (Atopobium vaginae BAA-55; TNZ 250 μg/ml, DAY 2): (+)
- growth (Atopobium vaginae BAA-55; TNZ 250 μg/ml, DAY 3): (+)
- growth (Atopobium vaginae BAA-55; TNZ 250 μg/ml, DAY 4): (+)
- growth (Atopobium vaginae BAA-55; TNZ 250 μg/ml, DAY 5): (+)
- growth (Atopobium vaginae BAA-55; TNZ 500 μg/ml, DAY 1): (−)
- growth (Atopobium vaginae BAA-55; TNZ 500 μg/ml, DAY 2): (−)
- growth (Atopobium vaginae BAA-55; TNZ 500 μg/ml, DAY 3): (+)
- growth (Atopobium vaginae BAA-55; TNZ 500 μg/ml, DAY 4): (+)
- growth (Atopobium vaginae BAA-55; TNZ 500 μg/ml, DAY 5): (+)
- growth ([1]; TNZ 2 μg/ml, DAY 1): (+)
- growth ([1]; TNZ 2 μg/ml, DAY 2): (+)
- growth ([1]; TNZ 2 μg/ml, DAY 3): (+)
- growth ([1]; TNZ 2 μg/ml, DAY 4): (+)
- growth ([1]; TNZ 2 μg/ml, DAY 5): (+)
- growth ([1]; TNZ 3.9 μg/ml, DAY 1): (+)
- growth ([1]; TNZ 3.9 μg/ml, DAY 2): (+)
- growth ([1]; TNZ 3.9 μg/ml, DAY 3): (+)
- growth ([1]; TNZ 3.9 μg/ml, DAY 4): (+)
- growth ([1]; TNZ 3.9 μg/ml, DAY 5): (+)
- growth ([1]; TNZ 7.8 μg/ml, DAY 1): (+)
- growth ([1]; TNZ 7.8 μg/ml, DAY 2): (+)
- growth ([1]; TNZ 7.8 μg/ml, DAY 3): (+)
- growth ([1]; TNZ 7.8 μg/ml, DAY 4): (+)
- growth ([1]; TNZ 7.8 μg/ml, DAY 5): (+)
- growth ([1]; TNZ 15.6 μg/ml, DAY 1): (−)
- growth ([1]; TNZ 15.6 μg/ml, DAY 2): (−)
- growth ([1]; TNZ 15.6 μg/ml, DAY 3): (−)
- growth ([1]; TNZ 15.6 μg/ml, DAY 4): (+)
- growth ([1]; TNZ 15.6 μg/ml, DAY 5): (+)
- growth ([1]; TNZ 31.3 μg/ml, DAY 1): (−)
- growth ([1]; TNZ 31.3 μg/ml, DAY 2): (−)
- growth ([1]; TNZ 31.3 μg/ml, DAY 3): (−)
- growth ([1]; TNZ 31.3 μg/ml, DAY 4): (+)
- growth ([1]; TNZ 31.3 μg/ml, DAY 5): (+)
- growth ([1]; TNZ 62.5 μg/ml, DAY 1): (−)
- growth ([1]; TNZ 62.5 μg/ml, DAY 2): (−)
- growth ([1]; TNZ 62.5 μg/ml, DAY 3): (−)
- growth ([1]; TNZ 62.5 μg/ml, DAY 4): (−)
- growth ([1]; TNZ 62.5 μg/ml, DAY 5): (−)
- growth ([1]; TNZ 125 μg/ml, DAY 1): (−)
- growth ([1]; TNZ 125 μg/ml, DAY 2): (−)
- growth ([1]; TNZ 125 μg/ml, DAY 3): (−)
- growth ([1]; TNZ 125 μg/ml, DAY 4): (−)
- growth ([1]; TNZ 125 μg/ml, DAY 5): (−)
- growth ([1]; TNZ 250 μg/ml, DAY 1): (−)
- growth ([1]; TNZ 250 μg/ml, DAY 2): (−)
- growth ([1]; TNZ 250 μg/ml, DAY 3): (−)
- growth ([1]; TNZ 250 μg/ml, DAY 4): (−)
- growth ([1]; TNZ 250 μg/ml, DAY 5): (−)
- growth ([1]; TNZ 500 μg/ml, DAY 1): (−)
- growth ([1]; TNZ 500 μg/ml, DAY 2): (−)
- growth ([1]; TNZ 500 μg/ml, DAY 3): (−)
- growth ([1]; TNZ 500 μg/ml, DAY 4): (−)
- growth ([1]; TNZ 500 μg/ml, DAY 5): (−)
- growth ([2]; TNZ 2 μg/ml, DAY 1): (+)
- growth ([2]; TNZ 2 μg/ml, DAY 2): (+)
- growth ([2]; TNZ 2 μg/ml, DAY 3): (+)
- growth ([2]; TNZ 2 μg/ml, DAY 4): (+)
- growth ([2]; TNZ 2 μg/ml, DAY 5): (+)
- growth ([2]; TNZ 3.9 μg/ml, DAY 1): (+)
- growth ([2]; TNZ 3.9 μg/ml, DAY 2): (+)
- growth ([2]; TNZ 3.9 μg/ml, DAY 3): (+)
- growth ([2]; TNZ 3.9 μg/ml, DAY 4): (+)
- growth ([2]; TNZ 3.9 μg/ml, DAY 5): (+)
- growth ([2]; TNZ 7.8 μg/ml, DAY 1): (+)
- growth ([2]; TNZ 7.8 μg/ml, DAY 2): (+)
- growth ([2]; TNZ 7.8 μg/ml, DAY 3): (+)
- growth ([2]; TNZ 7.8 μg/ml, DAY 4): (+)
- growth ([2]; TNZ 7.8 μg/ml, DAY 5): (+)
- growth ([2]; TNZ 15.6 μg/ml, DAY 1): (+)
- growth ([2]; TNZ 15.6 μg/ml, DAY 2): (+)
- growth ([2]; TNZ 15.6 μg/ml, DAY 3): (+)
- growth ([2]; TNZ 15.6 μg/ml, DAY 4): (+)
- growth ([2]; TNZ 15.6 μg/ml, DAY 5): (+)
- growth ([2]; TNZ 31.3 μg/ml, DAY 1): (+)
- growth ([2]; TNZ 31.3 μg/ml, DAY 2): (+)
- growth ([2]; TNZ 31.3 μg/ml, DAY 3): (+)
- growth ([2]; TNZ 31.3 μg/ml, DAY 4): (+)
- growth ([2]; TNZ 31.3 μg/ml, DAY 5): (+)
- growth ([2]; TNZ 62.5 μg/ml, DAY 1): (+)
- growth ([2]; TNZ 62.5 μg/ml, DAY 2): (+)
- growth ([2]; TNZ 62.5 μg/ml, DAY 3): (+)
- growth ([2]; TNZ 62.5 μg/ml, DAY 4): (+)
- growth ([2]; TNZ 62.5 μg/ml, DAY 5): (+)
- growth ([2]; TNZ 125 μg/ml, DAY 1): (+)
- growth ([2]; TNZ 125 μg/ml, DAY 2): (+)
- growth ([2]; TNZ 125 μg/ml, DAY 3): (+)
- growth ([2]; TNZ 125 μg/ml, DAY 4): (+)
- growth ([2]; TNZ 125 μg/ml, DAY 5): (+)
- growth ([2]; TNZ 250 μg/ml, DAY 1): (+)
- growth ([2]; TNZ 250 μg/ml, DAY 2): (+)
- growth ([2]; TNZ 250 μg/ml, DAY 3): (+)
- growth ([2]; TNZ 250 μg/ml, DAY 4): (+)
- growth ([2]; TNZ 250 μg/ml, DAY 5): (+)
- growth ([2]; TNZ 500 μg/ml, DAY 1): (+)
- growth ([2]; TNZ 500 μg/ml, DAY 2): (+)
- growth ([2]; TNZ 500 μg/ml, DAY 3): (+)
- growth ([2]; TNZ 500 μg/ml, DAY 4): (+)
- growth ([2]; TNZ 500 μg/ml, DAY 5): (+)
